Data from PubChem BioAssay AID2060909 (Molecular Pharmacology Branch, DTP, NCI, 2025).

System: 362531-283-R-J2-PDC complex spheroid viability
Experiment: Anticancer human tumor 362531-283-R-J2-PDC patient-derived colon adenocarcinoma cell line growth inhibition [RAS]
Settings: for IC50: curve of first compound; for viability, T/C: stronger effect = lower value
Procedure, shortened: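 Tumour cells grown as complex spheroids with HUVEC endothelial cells and mesenchymal stem cells, treated with RAS pathway inhibitor combinations. Each agent spans half-log steps from near clinical Cmax, or 10 microM where Cmax is unknown.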
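Also: spheroids exposed to the agents for 7 days before readout.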
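For viability, T/C in this document: luminescence viability as percent of DMSO vehicle control wells.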

Question: Which results are given for `C[C@@H](NC(=O)c1ncnc(N)c1Cl)c1ncc(C(=O)Nc2cc(C(F)(F)F)c(Cl)cn2)s1` + C=CC(=O)N1CCN(c2nc(OCC3CCCN3C)nc3c(F)c(-c4nc(N)cc(C)c4C(F)(F)F)c(Cl)cc23)C(C)C1?
Answer: IC50 (second compound 0.00316 µM): > 10 µM; IC50 (second compound 0.01 µM): > 10 µM; IC50 (second compound 0.0316 µM): > 10 µM; IC50 (second compound 0.1 µM): > 10 µM; IC50 (second compound 0.316 µM): > 10 µM; IC50 (second compound 1 µM): > 10 µM; viability, T/C (second compound 0.00316 µM, first compound 0.0316 µM): 102%; viability, T/C (second compound 0.00316 µM, first compound 0.1 µM): 109%; viability, T/C (second compound 0.00316 µM, first compound 0.316 µM): 115%; viability, T/C (second compound 0.00316 µM, first compound 1 µM): 99.1%; viability, T/C (second compound 0.00316 µM, first compound 3.16 µM): 84.9%; viability, T/C (second compound 0.00316 µM, first compound 10 µM): 63.8%; viability, T/C (second compound 0.01 µM, first compound 0.0316 µM): 103%; viability, T/C (second compound 0.01 µM, first compound 0.1 µM): 95%; viability, T/C (second compound 0.01 µM, first compound 0.316 µM): 93.1%; viability, T/C (second compound 0.01 µM, first compound 1 µM): 97.6%; viability, T/C (second compound 0.01 µM, first compound 3.16 µM): 87.3%; viability, T/C (second compound 0.01 µM, first compound 10 µM): 67.4%; viability, T/C (second compound 0.0316 µM, first compound 0.0316 µM): 107%; viability, T/C (second compound 0.0316 µM, first compound 0.1 µM): 99.7%; viability, T/C (second compound 0.0316 µM, first compound 0.316 µM): 98.6%; viability, T/C (second compound 0.0316 µM, first compound 1 µM): 105%; viability, T/C (second compound 0.0316 µM, first compound 3.16 µM): 91.2%; viability, T/C (second compound 0.0316 µM, first compound 10 µM): 63.4%; viability, T/C (second compound 0.1 µM, first compound 0.0316 µM): 104%; viability, T/C (second compound 0.1 µM, first compound 0.1 µM): 112%; viability, T/C (second compound 0.1 µM, first compound 0.316 µM): 97.9%; viability, T/C (second compound 0.1 µM, first compound 1 µM): 96.3%; viability, T/C (second compound 0.1 µM, first compound 3.16 µM): 99.9%; viability, T/C (second compound 0.1 µM, first compound 10 µM): 60.3%; viability, T/C (second compound 0.316 µM, first compound 0.0316 µM): 103%; viability, T/C (second compound 0.316 µM, first compound 0.1 µM): 95.2%; viability, T/C (second compound 0.316 µM, first compound 0.316 µM): 100%; viability, T/C (second compound 0.316 µM, first compound 1 µM): 103%; viability, T/C (second compound 0.316 µM, first compound 3.16 µM): 102%; viability, T/C (second compound 0.316 µM, first compound 10 µM): 67.2%; viability, T/C (second compound 1 µM, first compound 0.0316 µM): 107%; viability, T/C (second compound 1 µM, first compound 0.1 µM): 104%; viability, T/C (second compound 1 µM, first compound 0.316 µM): 99.3%; viability, T/C (second compound 1 µM, first compound 1 µM): 106%; viability, T/C (second compound 1 µM, first compound 3.16 µM): 97.7%; viability, T/C (second compound 1 µM, first compound 10 µM): 63.6%
